Reference: US20250129078A1, “ERBB2 INHIBITORS” (Cogent Biosciences, Inc., priority 2023, published 2025)

Columns and labels:
EGFR WT = EGFR WT (Homo sapiens (Human), UniProt P00533); experiment: ErbB enzyme assay (CisBio HTRF-KinEASE-TK), EGFR WT; format: biochemical; details: ATP at Km (25 μM), 1 h incubation
Outline: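 Three-fold DMSO serial dilutions were added to kinase reactions and incubated 1 h at room temperature. Quench used 62.5 nM Sa-XL665 plus 0.25×TK-Ab-Cryptate in detection buffer, followed by another 1 h. Substrate phosphorylation was then measured by dual-wavelength HTRF.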

ErbB2 V777L = ErbB2 V777L (Homo sapiens (Human), UniProt P04626, V777L); experiment: ErbB enzyme assay (CisBio HTRF-KinEASE-TK), ErbB2 V777L; format: biochemical
Protocol: In vitro enzyme assays based on CisBio HTRF-KinEASE-TK technology were used to determine compound potencies. […] After another 1 h incubation at ambient temperature, the extent of substrate phosphorylation was determined using a PerkinElmer EnVision multimode plate reader via time-resolved fluorescence dual wavelength detection. The percent of control (POC) was calculated using the ratio of emission at […] to the emission at 620 nm. One hundred POC was determined using DMSO only controls (no test compounds present) and zero POC was determined using pre-quenched controls reactions. A 4-parameter logistic equation was fit to the POC values as a function of the test compound concentration and the IC50 value was determined as the point where the curve crossed 50 POC.

Sequence of ErbB2 V777L (P04626 23-1255 V777L): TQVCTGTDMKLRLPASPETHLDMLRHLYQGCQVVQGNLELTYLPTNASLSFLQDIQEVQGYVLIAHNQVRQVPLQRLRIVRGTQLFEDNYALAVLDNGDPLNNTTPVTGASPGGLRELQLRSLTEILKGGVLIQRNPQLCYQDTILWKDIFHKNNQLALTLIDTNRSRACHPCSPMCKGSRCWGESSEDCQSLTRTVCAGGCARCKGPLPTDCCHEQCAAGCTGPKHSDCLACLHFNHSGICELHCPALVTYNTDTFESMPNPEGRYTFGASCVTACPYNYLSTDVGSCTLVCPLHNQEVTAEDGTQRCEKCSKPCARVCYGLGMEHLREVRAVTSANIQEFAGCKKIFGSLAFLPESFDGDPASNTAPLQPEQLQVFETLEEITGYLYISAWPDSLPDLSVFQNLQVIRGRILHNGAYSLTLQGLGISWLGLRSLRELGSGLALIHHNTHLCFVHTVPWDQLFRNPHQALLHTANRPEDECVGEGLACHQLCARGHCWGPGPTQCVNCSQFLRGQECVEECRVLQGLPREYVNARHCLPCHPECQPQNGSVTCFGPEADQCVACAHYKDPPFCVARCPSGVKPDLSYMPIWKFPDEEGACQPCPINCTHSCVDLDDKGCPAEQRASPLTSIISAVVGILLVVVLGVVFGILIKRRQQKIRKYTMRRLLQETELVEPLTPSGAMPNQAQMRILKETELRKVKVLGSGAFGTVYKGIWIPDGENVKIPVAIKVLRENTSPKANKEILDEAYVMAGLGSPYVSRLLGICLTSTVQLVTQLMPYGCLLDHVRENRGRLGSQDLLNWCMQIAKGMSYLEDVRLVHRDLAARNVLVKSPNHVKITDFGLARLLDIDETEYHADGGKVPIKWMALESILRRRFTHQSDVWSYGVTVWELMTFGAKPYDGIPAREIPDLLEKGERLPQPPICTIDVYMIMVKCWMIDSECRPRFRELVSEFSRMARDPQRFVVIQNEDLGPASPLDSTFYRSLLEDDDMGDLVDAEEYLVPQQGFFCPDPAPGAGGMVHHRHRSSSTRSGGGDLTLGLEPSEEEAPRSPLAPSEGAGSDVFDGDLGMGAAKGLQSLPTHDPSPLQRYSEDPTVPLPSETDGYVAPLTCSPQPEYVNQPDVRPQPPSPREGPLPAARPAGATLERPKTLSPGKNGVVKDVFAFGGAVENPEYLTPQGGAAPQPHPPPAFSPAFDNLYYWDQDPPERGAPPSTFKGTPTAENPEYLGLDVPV
Sequence of EGFR WT (P00533 25-1210): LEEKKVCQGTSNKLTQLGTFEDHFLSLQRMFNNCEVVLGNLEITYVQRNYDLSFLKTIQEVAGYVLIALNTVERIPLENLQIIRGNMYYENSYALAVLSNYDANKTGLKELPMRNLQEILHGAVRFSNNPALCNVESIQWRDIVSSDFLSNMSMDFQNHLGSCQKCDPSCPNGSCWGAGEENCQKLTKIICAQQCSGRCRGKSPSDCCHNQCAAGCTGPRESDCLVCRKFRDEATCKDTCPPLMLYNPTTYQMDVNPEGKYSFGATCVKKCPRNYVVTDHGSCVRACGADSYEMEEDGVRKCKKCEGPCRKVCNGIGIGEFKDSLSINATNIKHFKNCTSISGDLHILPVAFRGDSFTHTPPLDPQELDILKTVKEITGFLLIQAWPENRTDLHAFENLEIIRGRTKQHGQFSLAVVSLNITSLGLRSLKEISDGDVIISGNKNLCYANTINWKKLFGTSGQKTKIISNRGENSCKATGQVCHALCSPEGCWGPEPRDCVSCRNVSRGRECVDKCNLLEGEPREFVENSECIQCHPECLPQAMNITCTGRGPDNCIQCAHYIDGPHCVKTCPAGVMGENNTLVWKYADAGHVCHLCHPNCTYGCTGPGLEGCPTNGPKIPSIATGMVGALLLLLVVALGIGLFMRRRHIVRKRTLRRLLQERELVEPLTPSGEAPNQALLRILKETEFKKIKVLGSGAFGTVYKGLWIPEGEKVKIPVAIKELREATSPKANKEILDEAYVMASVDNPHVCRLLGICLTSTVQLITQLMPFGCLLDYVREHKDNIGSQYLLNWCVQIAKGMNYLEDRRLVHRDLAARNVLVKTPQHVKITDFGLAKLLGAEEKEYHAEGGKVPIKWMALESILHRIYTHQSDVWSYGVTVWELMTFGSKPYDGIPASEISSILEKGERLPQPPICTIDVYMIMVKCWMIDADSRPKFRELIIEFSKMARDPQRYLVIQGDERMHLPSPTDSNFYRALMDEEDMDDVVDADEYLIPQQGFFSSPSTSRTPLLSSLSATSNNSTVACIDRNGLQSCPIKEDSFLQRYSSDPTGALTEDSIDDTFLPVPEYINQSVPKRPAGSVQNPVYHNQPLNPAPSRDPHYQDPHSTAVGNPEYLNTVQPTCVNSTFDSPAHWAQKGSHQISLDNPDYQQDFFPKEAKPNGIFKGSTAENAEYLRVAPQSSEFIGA

| IC50 (EGFR WT) [nM] | IC50 (ErbB2 V777L) [nM] | Structure (SMILES) |
| --- | --- | --- |
| 50 to 100 | 100 to 500 | C=CC(=O)N[C@H]1CCCN(c2ccc3ncnc(Nc4ccc(Oc5ccc6c(c5)nnn6C)c(C)c4F)c3n2)[C@@H]1C (single isomer, unassigned) [Compound 348] |
| 100 to 500 | 50 to 100 | C=CC(=O)N[C@@H]1CCCN(c2ccc3ncnc(Nc4ccc(Oc5ccc6c(c5)nnn6C)c(C)c4F)c3n2)[C@H]1C (single isomer, unassigned) [Compound 349] |
| 100 to 500 | 50 to 100 | C=CC(=O)N1C[C@@H]2CCN(c3ccc4ncnc(Nc5ccc(Oc6ccc7c(c6)nnn7C)c(C)c5)c4n3)[C@@H]2C1 (stereo in doubt) [Compound 314, 1-(1-(4-((3-methyl-4-((1-methyl-1H-benzo[d][1,2,3]triazol-5-yl)oxy)phenyl)amino)pyrido[3,2-d]pyrimidin-6-yl)hexahydropyrrolo[3,4-b]pyrrol-5(1H)-y1)prop-2-en-1-one] |
| 100 to 500 | 50 to 100 | C=CC(=O)N1CCN(c2ncc3ncnc(Nc4ccc(Oc5ccc6c(c5)nnn6C)c(C)c4)c3n2)C[C@H]1C [Compound 1, (R)-1-(2-methyl-4-(8-((3-methyl-4-((1-methyl-1H-benzo[d][1,2,3]triazol-5-yl)oxy)phenyl)amino)pyrimido[5,4-d]pyrimidin-2-yl)piperazin-1-yl)prop-2-en-1-one] |
| 100 to 500 | 50 to 100 | C=CC(=O)N1CCN(c2ncc3ncnc(Nc4ccc(Oc5ccc6c(c5)nnn6C)c(C)c4)c3n2)C[C@@H]1C [Compound 2, (S)-1-(2-methyl-4-(8-((3-methyl-4-((1-methyl-1H-benzo[d][1,2,3]triazol-5-yl)oxy)phenyl)amino)pyrimido[5,4-d]pyrimidin-2-y1)piperazin-1-yl)prop-2-en-1-one] |
| 100 to 500 | 100 to 500 | C=CC(=O)N1CCN(c2ncc3ncnc(Nc4cc(C)c(Oc5ccc6c(c5)nnn6C)cc4F)c3n2)CC1 [Compound 6, 1-(4-(8-((2-fluoro-5-methyl-4-((1-methyl-1H-benzo[d][1,2,3]triazol-5-yl)oxy)phenyl)amino)pyrimido [5,4-d]pyrimidin-2-yl)piperazin-1-yl)prop-2-en-1-one] |
| 500 to 1000 | 100 to 500 | C=CC(=O)N(C)C1CCN(c2ncc3ncnc(Nc4ccc(Oc5ccc6c(c5)nnn6C)c(C)c4F)c3n2)C1 (stereo not shown) [Compound 9, N-(1-(8-((2-fluoro-3-methyl-4-((1-methyl-1H-benzo[d][1,2,3]triazol-5-yl)oxy)phenyl)amino)pyrimido [5,4-d]pyrimidin-2-yl)pyrrolidin-3-y1)-N-methylacrylamide] |
| 100 to 500 | 100 to 500 | C=CC(=O)N1CCN(c2ncc3ncnc(Nc4cc(C)c(Oc5ccc6c(c5)nnn6C)cc4OC)c3n2)CC1 [Compound 12, 1-(4-(8-((2-methoxy-5-methyl-4-((1-methyl-1H-benzo[d][1,2,3]triazol-5-yl)oxy)phenyl)amino)pyrimido[5,4-d]pyrimidin-2-yl)piperazin-1-yl)prop-2-en-1-one 2,2,2-trifluoroacetate] |
| 100 to 500 | 100 to 500 | C=CC(=O)N1C2CC1CN(c1ncc3ncnc(Nc4cc(C)c(Oc5ccc6c(c5)nnn6C)cc4OC)c3n1)C2 [Compound 13, 1-(3-(8-((2-methoxy-5-methyl-4-((1-methyl-1H-benzo[d][1,2,3]triazol-5-yl)oxy)phenyl)amino)pyrimido[5,4-d]pyrimidin-2-y1)-3,6-diazabicyclo[3.1.1]heptan-6-yl)prop-2-en-1-one] |
| 100 to 500 | 100 to 500 | C=CC(=O)N1CC2CC(C1)N2c1ncc2ncnc(Nc3ccc(Oc4ccc5c(c4)nnn5C)c(C)c3)c2n1 [Compound 16, 1-(6-(8-((3-methyl-4-((1-methyl-1H-benzo[d][1,2,3]triazol-5-yl)oxy)phenyl)amino)pyrimido[5,4-d]pyrimidin-2-yl)-3,6-diazabicyclo[3.1.1]heptan-3-yl)prop-2-en-1-one] |
| 500 to 1000 | 100 to 500 | C=CC(=O)N1CCN(c2ncc3ncnc(Nc4ccc(Oc5ccc6c(c5)nnn6C)c(C)c4)c3n2)[C@H](C)C1 [Compound 17, (R)-1-(3-methyl-4-(8-((3-methyl-4-((1-methyl-1H-benzo[d][1,2,3]triazol-5-yl)oxy)phenyl)amino)pyrimido[5,4-d]pyrimidin-2-yl)piperazin-1-yl)prop-2-en-1-one] |
| 100 to 500 | 50 to 100 | C=CC(=O)N1CCN(c2ncc3ncnc(Nc4ccc(Oc5ccc6c(c5)nnn6C)c(C)c4)c3n2)[C@@H](C)C1 [Compound 18, (S)-1-(3-methyl-4-(8-((3-methyl-4-((1-methyl-1H-benzo[d][1,2,3]triazol-5-yl)oxy)phenyl)amino)pyrimido[5,4-d]pyrimidin-2-yl)piperazin-1-yl)prop-2-en-1-one 2,2,2-trifluoroacetate] |
| 100 to 500 | 100 to 500 | C=CC(=O)N1CCN(c2ncc3ncnc(Nc4c(F)cc(Oc5ccc6c(c5)nnn6C)c(F)c4F)c3n2)CC1 [Compound 19, 1-(4-(8-((2,3,6-trifluoro-4-((1-methyl-1H-benzo[d][1,2,3]triazol-5-yl)oxy)phenyl)amino)pyrimido [5,4-d]pyrimidin-2-yl)piperazin-1-yl)prop-2-en-1-one] |
| 100 to 500 | 500 to 1000 | C=CC(=O)N1CCN(c2ncc3ncnc(Nc4c(F)cc(Oc5ccc6c(c5)nnn6C)cc4F)c3n2)CC1 [Compound 20, 1-(4-(8-((2,6-difluoro-4-((1-methyl-1H-benzo[d][1,2,3]triazol-5-yl)oxy)phenyl)amino)pyrimido[5,4-d]pyrimidin-2-yl)piperazin-1-yl)prop-2-en-1-one] |
| 100 to 500 | 100 to 500 | C=CC(=O)N1CCN(c2ncc3ncnc(Nc4ccc(Oc5ccc6c(c5)nnn6C)cc4F)c3n2)CC1 [Compound 22, 1-(4-(8-((2-fluoro-4-((1-methyl-1H-benzo[d][1,2,3]triazol-5-yl)oxy)phenyl)amino)pyrimido[5,4-d]pyrimidin-2-yl)piperazin-1-yl)prop-2-en-1-one] |
| 100 to 500 | 100 to 500 | C=CC(=O)N(C)C1CN(c2ncc3ncnc(Nc4ccc(Oc5ccc6c(c5)nnn6C)c(C)c4)c3n2)C1 [Compound 26, N-methyl-N-(1-(8-((3-methyl-4-((1-methyl-1H-benzo[d][1,2,3]triazol-5-yl)oxy)phenyl)amino)pyrimido[5,4-d]pyrimidin-2-yl)azetidin-3-yl)acrylamide] |
| ≥ 1000 | 100 to 500 | C=CC(=O)N1CC2CN(c3ncc4ncnc(Nc5ccc(Oc6ccc7c(c6)nnn7C)c(C)c5)c4n3)CC2C1 (stereo not shown) [Compound 27, 1-(5-(8-((3-methyl-4-((1-methyl-1H-benzo[d][1,2,3]triazol-5-yl)oxy)phenyl)amino)pyrimido[5,4-d]pyrimidin-2-yl)hexahydropyrrolo[3,4-c]pyrrol-2(1H)-y1)prop-2-en-1-one] |
| 100 to 500 | 100 to 500 | C=CC(=O)N(C)C1CN(c2ncc3ncnc(Nc4ccc(Oc5ccc6c(c5)nnn6C)c(C)c4F)c3n2)C1 [Compound 28, N-(1-(8-((2-fluoro-3-methyl-4-((1-methyl-1H-benzo[d][1,2,3]triazol-5-yl)oxy)phenyl)amino)pyrimido [5,4-d]pyrimidin-2-yl)azetidin-3-yl)-N-methylacrylamide] |
| 100 to 500 | 100 to 500 | C=CC(=O)N1CCN(c2ncc3ncnc(Nc4cc(F)c(Oc5ccc6c(c5)nnn6C)cc4F)c3n2)CC1 [Compound 31, 1-(4-(8-((2,5-difluoro-4-((1-methyl-1H-benzo[d][1,2,3]triazol-5-yl)oxy)phenyl)amino)pyrimido[5,4-d]pyrimidin-2-yl)piperazin-1-yl)prop-2-en-1-one] |
| 100 to 500 | 100 to 500 | C=CC(=O)N1CCN(c2ncc3ncnc(Nc4ccc(Oc5ccc6c(c5)nnn6C)c(C)c4F)c3n2)CC1(C)C [Compound 32, 1-(4-(8-((2-fluoro-3-methyl-4-((1-methyl-1H-benzo[d][1,2,3]triazol-5-yl)oxy)phenyl)amino)pyrimido [5,4-d]pyrimidin-2-yl)-2,2-dimethylpiperazin-1-yl)prop-2-en-1-one] |
| ≥ 1000 | 100 to 500 | C/C=C/C(=O)N1CCN(c2ncc3ncnc(Nc4ccc(Oc5ccc6c(c5)nnn6C)c(C)c4)c3n2)CC1 [Compound 34, (E)-1-(4-(8-((3-methyl-4-((1-methyl-1H-benzo[d][1,2,3]triazol-5-yl)oxy)phenyl)amino)pyrimido [5,4-d]pyrimidin-2-yl)piperazin-1-yl)but-2-en-1-one] |
| ≥ 1000 | 500 to 1000 | C=C(C)C(=O)N1CCN(c2ncc3ncnc(Nc4ccc(Oc5ccc6c(c5)nnn6C)c(C)c4)c3n2)CC1 [Compound 35, 2-methyl-1-(4-(8-((3-methyl-4-((1-methyl-1H-benzo[d][1,2,3]triazol-5-yl)oxy)phenyl)amino)pyrimido [5,4-d]pyrimidin-2-y1)piperazin-1-yl)prop-2-en-1-one] |
| 100 to 500 | 50 to 100 | C=CC(=O)N1CCN(c2ncc3ncnc(Nc4cc(C)c(Oc5ccc6c(c5)ncn6C(F)F)cc4OC)c3n2)CC1 [Compound 37, 1-(4-(8-((4-((1-(difluoromethyl)-1H-benzo[d]imidazol-5-y1)oxy)-2-methoxy-5-methylphenyl)amino)pyrimido[5,4-d]pyrimidin-2-yl)piperazin-1-yl)prop-2-en-1-one 2,2,2-trifluoroacetate] |
